Reference: patent US9062041B2 (Bayer Intellectual Property GmbH, priority 2011, dated 2015)

Legend:
Assay type in all cases: cell-based
[1] = molecular target: EP2 subtype of the human PGE2 receptor (Homo sapiens, UniProt P43116); assay: cAMP antagonism test on the human EP2 receptor (HTRF cAMP detection); conditions: hEP2 receptor, read-out: Antagonism hEP2 IC50
How it was run: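 Read-out is a competitive HTRF for cAMP: lysate cAMP displaces cAMP-d2 from Eu cryptate-labelled antibody, and antagonism raises the 665/620 nm ratio. Compound (0.8 nM–16.5 μM) added to EP2 cells 20 min at RT before 60 min PGE2 challenge (3× stock 1.5 nM) with IBMX, followed by 20 min lysis.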

[2] = molecular target: T1, human PGD receptor (Homo sapiens, UniProt Q13258); assay: cAMP antagonism test on the human prostaglandin D receptor (HTRF cAMP detection); conditions: selectivity towards hDP, IC50 measured by cAMP antagonism test
T1 sequence (Q13258 1-359): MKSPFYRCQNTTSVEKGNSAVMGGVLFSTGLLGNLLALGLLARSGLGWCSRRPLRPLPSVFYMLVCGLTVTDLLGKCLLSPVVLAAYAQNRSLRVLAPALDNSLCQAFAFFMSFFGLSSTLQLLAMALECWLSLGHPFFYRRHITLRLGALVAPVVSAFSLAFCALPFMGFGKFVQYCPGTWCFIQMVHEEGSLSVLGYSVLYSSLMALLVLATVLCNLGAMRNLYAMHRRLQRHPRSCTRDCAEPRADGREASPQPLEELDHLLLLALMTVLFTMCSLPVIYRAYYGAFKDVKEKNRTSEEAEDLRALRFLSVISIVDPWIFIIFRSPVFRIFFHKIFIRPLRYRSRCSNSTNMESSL
How it was run: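 HTRF competition read-out (665/620 nm ratio ×10000), where higher FRET means less cAMP, i.e. antagonism. Compounds (0.8 nM–16.5 μM) were preincubated 20 min at RT with cells and cAMP-d2, PGD2 (3× solution, 6 nM) in IBMX-containing PBS added for 30 min at RT, then cells lysed 20 min.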

[3] = molecular target: EP4 subtype of the human PGE2 receptor (Homo sapiens, UniProt P35408); assay: cAMP antagonism test on the human EP4 receptor (HTRF cAMP detection); conditions: selectivity towards hEP4, IC50 measured by cAMP antagonism test
EP4 subtype of the human PGE2 receptor, sequence (P35408 whole entry): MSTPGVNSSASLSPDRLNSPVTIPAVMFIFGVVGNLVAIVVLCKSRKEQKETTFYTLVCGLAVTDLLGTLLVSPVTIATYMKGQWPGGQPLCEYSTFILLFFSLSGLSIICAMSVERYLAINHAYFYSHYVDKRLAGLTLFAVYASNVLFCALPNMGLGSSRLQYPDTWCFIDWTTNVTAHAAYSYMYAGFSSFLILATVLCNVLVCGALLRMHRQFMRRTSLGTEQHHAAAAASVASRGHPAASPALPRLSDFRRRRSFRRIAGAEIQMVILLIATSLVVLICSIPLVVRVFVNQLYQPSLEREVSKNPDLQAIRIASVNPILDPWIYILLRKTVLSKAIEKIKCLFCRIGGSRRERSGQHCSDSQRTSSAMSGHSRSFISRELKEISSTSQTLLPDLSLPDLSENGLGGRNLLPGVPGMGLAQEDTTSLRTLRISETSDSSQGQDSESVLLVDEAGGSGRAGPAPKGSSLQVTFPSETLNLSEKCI
How it was run: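 Competitive HTRF cAMP read-out (cAMP-d2 vs Eu-cryptate anti-cAMP antibody, 665/620 nm ratio) on lysed human EP4 cells. Compound (0.8 nM–16.5 μM) applied 20 min at RT before 60 min PGE2 challenge (3× solution 0.3 nM, IBMX present); 20 min lysis precedes reading.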

EP2 subtype of the human PGE2 receptor, sequence (P43116 whole entry): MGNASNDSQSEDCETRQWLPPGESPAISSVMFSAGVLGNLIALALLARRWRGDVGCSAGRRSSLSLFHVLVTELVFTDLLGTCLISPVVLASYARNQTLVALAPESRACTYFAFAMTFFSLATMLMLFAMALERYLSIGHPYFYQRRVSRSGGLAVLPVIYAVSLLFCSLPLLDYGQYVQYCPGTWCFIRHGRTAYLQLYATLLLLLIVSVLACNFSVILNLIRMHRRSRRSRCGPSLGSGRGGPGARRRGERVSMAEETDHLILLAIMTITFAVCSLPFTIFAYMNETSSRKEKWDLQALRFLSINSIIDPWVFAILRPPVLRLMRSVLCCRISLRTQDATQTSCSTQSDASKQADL

| Structure (SMILES) | IC50 [1] | Selectivity hEP2/hDP [2] | Selectivity hEP2/hEP4 [3] |
| --- | --- | --- | --- |
| Cc1c(C(=O)NCC(F)(F)F)ccc2nn(CC3CCN(C(=O)c4cc5cc(Cl)ccc5n4C)CC3)cc12 [Example 294, 2-({1-[(5-chloro-1-methyl-1H-indol-2-yl)carbonyl]piperidin-4-yl}methyl)-4-methyl-N-(2,2,2-trifluoroethyl)-2H-indazol-5-carboxamide] | 13.2 nM | xxx (xxx > 100) | xxx (xxx > 100) |
| COCCNC(=O)c1ccc2nn(CC3CCN(C(=O)c4ccc(F)cc4)CC3)cc2c1C [Example 22, 2-{[1-(4-fluoro-benzoyl)piperidin-4-yl]methyl}-N-(2-methoxyethyl)-4-methyl-2H-indazol-5-carboxamide] | 30.3 nM | xxx (xxx > 100) | xxx (xxx > 100) |
| Cc1c(C(=O)NCC(F)(F)F)ccc2nn(CC3CCN(C(=O)c4ccc(Br)cc4)CC3)cc12 [Example 316, 2-{[1-(4-bromobenzoyl)piperidin-4-yl]methyl}-4-methyl-N-(2,2,2-trifluoro-ethyl)-2H-indazol-5-carboxamide] | 79 nM | xxx (xxx > 100) | xxx (xxx > 100) |
| CCOCCNC(=O)c1ccc2nn(CC3CN(C(=O)c4ccc(Cl)cc4)C3)cc2c1OC [Example 259, 2-{[1-(4-chlorobenzoyl)azetidin-3-yl]methyl}-N-(2-ethoxyethyl)-4-methoxy-2H-indazol-5-carboxamide] | 25.6 nM | xxx (xxx > 100) | xxx (xxx > 100) |
| COCCNC(=O)c1ccc2nn(CC3CCN(C(=O)c4ccc5ccc(OC)cc5c4)CC3)cc2c1C [Example 344, N-(2-methoxyethyl)-2-{[1-(7-methoxy-2-naphthoyl)piperidin-4-yl]methyl}-4-methyl-2H-indazol-5-carboxamide] | 10.3 nM | xxx (xxx > 100) | xxx (xxx > 100) |
| COCCNC(=O)c1ccc2nn(CC3CN(C(=O)c4ccc(Cl)cc4F)C3)cc2c1OC [Example 257, 2-{[1-(4-chloro-2-fluorobenzoyl)azetidin-3-yl]methyl}-4-methoxy-N-(2-methoxyethyl)-2H-indazol-5-carboxamide] | 102 nM | xxx (xxx > 100) | xxx (xxx > 100) |

Results, then the compound that gave them:

| IC50 [1] | Selectivity hEP2/hDP [2] | Selectivity hEP2/hEP4 [3] | Structure (SMILES) |
| --- | --- | --- | --- |
| 3.66 nM | xxx (xxx > 100) | xxx (xxx > 100) | COCCNC(=O)c1ccc2nn(CC3CN(C(=O)c4ccc(Oc5ccc(C(F)(F)F)cc5)cc4)C3)cc2c1C [Example 125, N-(2-methoxyethyl)-4-methyl-2-[(1-{4-[4-(trifluoromethyl)phenoxy]benzoyl}azetidin-3-yl)methyl]-2H-indazol-5-carboxamide] |
| 4.82 nM | xxx (xxx > 100) | xxx (xxx > 100) | COCCNC(=O)c1ccc2nn(CC3CCN(C(=O)c4ccc(Oc5ccc(C(F)(F)F)nc5)cc4)CC3)cc2c1C [Example 349, N-(2-methoxyethyl)-4-methyl-2-{[1-(4-{[6-(trifluoromethyl)pyridin-3-yl]oxy}-benzoyl)piperidin-4-yl]methyl}-2H-indazol-5-carboxamide] |
| 5.29 nM | xxx (xxx > 100) | xxx (xxx > 100) | COCCNC(=O)c1ccc2nn(CC3CCN(C(=O)c4ccc(SC(F)(F)F)cc4)CC3)cc2c1C [Example 57, N-(2-methoxyethyl)-4-methyl-2-[(1-{4-[(trifluoromethyl)sulphanyl]benzoyl}piperidin-4-yl)methyl]-2H-indazol-5-carboxamide] |
| 5.3 nM | xxx (xxx > 100) | xxx (xxx > 100) | COCCNC(=O)c1ccc2nn(CC3CCN(C(=O)c4ccc(OC(F)F)cc4)CC3)cc2c1C [Example 365, 2-({1-[4-(difluoromethoxy)benzoyl]piperidin-4-yl}methyl)-N-(2-methoxyethyl)-4-methyl-2H-indazol-5-carboxamide] |
